These results are taken from patent publication US20100130604A1, “USE OF ROSMARINIC ACID IN MANUFACTURE OF MEDICAMENTS FOR TREATING OR PREVENTING HEPATIC AND RENAL DISEASES” (SHANGDONG LUYE NATURAL DRUG RESEARCH AND DEVELOPMENT CO., …, priority 2006, published 2010).

The test concerns CRF rats. Nature of the test: CRF induced by 5/6 nephrectomy in rats. Type of test: in vivo, Sprague Dawley rats. The procedure:
130 rats were randomly divided into 13 groups, with 10 animals in each group, namely, a normal control group, a model group, methylprednisolone p.o. Group at 12 mg/kg, RA i.v. groups at 2.5 mg/kg, 5 mg/kg, 25 mg/kg, 75 mg/kg, and 150 mg/kg of RA, and RA p.o. groups at 5 mg/kg, 10 mg/kg, 50 mg/kg, 150 mg/kg, and 300 mg/kg of RA. Apart from the normal control group, all other rats were induced to CRF by cutting off 5/6 of the kidneys. 2/3 of the left kidney was removed in the first operation, and one week later the right kidney in the second operation. Dosing started one week after the second operation via p.o. or i.p. routes. Blood was collected from eyepit at week 4 and week 8 to determine creatinine and urea nitrogen levels in sera. 5 animals in each group were sacrificed at week 4 and […] were sacrificed at the end of the study. Pathological changes in renal function were observed through HE and PAS staining of histopathological sections.

SMILES strings stand for the structures.

For `O=C(/C=C/c1ccc(O)c(O)c1)O[C@H](Cc1ccc(O)c(O)c1)C(=O)O` [RA, R(+)2-{[3-(3,4-dihydroxylphenyl-(oxo-2-propenyl)oxy]3,4-dihydroxylphenylpropionic acid]}], the Serum urea nitrogen by setting is: (4 weeks, p.o. 5 mg/kg) 20.21 ± 2.22 mg/dL; (4 weeks, p.o. 50 mg/kg) 19.95 ± 2.20 mg/dL; (8 weeks, p.o. 5 mg/kg) 25.98 ± 2.72 mg/dL. Also, the Serum creatinine reads like this: (8 weeks, p.o. 50 mg/kg) 1.92 ± 0.32 mg/dL; (8 weeks, p.o. 300 mg/kg) 1.74 ± 0.36 mg/dL. Also, the “renal pathological changes (HE, PAS)” value (week 8) was “alleviated by RA treatment in a dose-dependent manner”.
